Results: the NIST ThermoML archive (doi:10.1016/j.jct.2014.12.027)
± gives the expanded uncertainty stated by the source.

Key:
[1] = 101.33 kPa, Liquid, Vibrating tube method
[2] = activity coefficient (dimensionless); of the first substance listed, at infinite dilution; xn = mol fraction of the nth substance listed; settings: 101 kPa, Liquid, Chromatography, x1 = 0

Question: Which mass density ([1]; 293.15 K) does the source give for `CCCC[n+]1ccc(C)cc1.N#CC(=C=[N-])C#N` [1-butyl-4-methylpyridinium tricyanomethanide] here?
Answer: 1037.3 ± 0.9 kg/m3

Question: What about the mass density ([1]; 303.15 K) of the same compound?
Answer: 1031.7 ± 0.9 kg/m3

Question: What about the mass density ([1]; 313.15 K) of the same compound?
Answer: 1026.2 ± 0.9 kg/m3

Question: And the mass density ([1]; 323.15 K)?
Answer: 1020.7 ± 0.9 kg/m3

Question: And the mass density ([1]; 333.15 K)?
Answer: 1015.1 ± 0.9 kg/m3

Question: And the mass density ([1]; 343.15 K)?
Answer: 1009.6 ± 0.9 kg/m3

Question: What does the source list for `C1COCCO1` [1,4-dioxane] + CCCC[n+]1ccc(C)cc1.N#CC(=C=[N-])C#N?
Answer: activity coefficient ([2]; 318.15 K): 0.573 ± 0.041; activity coefficient ([2]; 328.15 K): 0.601 ± 0.042; activity coefficient ([2]; 338.15 K): 0.624 ± 0.043; activity coefficient ([2]; 348.15 K): 0.656 ± 0.045; activity coefficient ([2]; 358.15 K): 0.68 ± 0.046; activity coefficient ([2]; 368.15 K): 0.708 ± 0.047

Question: What does the source list for `CC1CCCCC1` [methylcyclohexane] + CCCC[n+]1ccc(C)cc1.N#CC(=C=[N-])C#N?
Answer: activity coefficient ([2]; 318.15 K): 15.8 ± 1.1; activity coefficient ([2]; 328.15 K): 14.8 ± 1; activity coefficient ([2]; 338.15 K): 13.9 ± 1; activity coefficient ([2]; 348.15 K): 13.4 ± 0.9; activity coefficient ([2]; 358.15 K): 12.7 ± 0.9; activity coefficient ([2]; 368.15 K): 12.1 ± 0.8

Question: Which results are given for `Cc1ccccc1C` [1,2-dimethylbenzene] + CCCC[n+]1ccc(C)cc1.N#CC(=C=[N-])C#N?
Answer: activity coefficient ([2]; 318.15 K): 1.4 ± 0.09; activity coefficient ([2]; 328.15 K): 1.45 ± 0.1; activity coefficient ([2]; 338.15 K): 1.49 ± 0.1; activity coefficient ([2]; 348.15 K): 1.56 ± 0.1; activity coefficient ([2]; 358.15 K): 1.61 ± 0.11; activity coefficient ([2]; 368.15 K): 1.66 ± 0.11

Question: What does the source list for `CC(C)O` [propan-2-ol] + CCCC[n+]1ccc(C)cc1.N#CC(=C=[N-])C#N?
Answer: activity coefficient ([2]; 318.15 K): 1.15 ± 0.07; activity coefficient ([2]; 328.15 K): 1.09 ± 0.07; activity coefficient ([2]; 338.15 K): 1.04 ± 0.07; activity coefficient ([2]; 348.15 K): 1 ± 0.06; activity coefficient ([2]; 358.15 K): 0.961 ± 0.06; activity coefficient ([2]; 368.15 K): 0.928 ± 0.059

Question: For `C=CCCCCCC` [oct-1-ene] + CCCC[n+]1ccc(C)cc1.N#CC(=C=[N-])C#N, which activity coefficient ([2]; 318.15 K) is on record?
Answer: 21.3 ± 1.5

Question: And the activity coefficient ([2]; 328.15 K)?
Answer: 20.3 ± 1.4

Question: What about the activity coefficient ([2]; 338.15 K) of the same compound?
Answer: 19.7 ± 1.3

Question: And the activity coefficient ([2]; 348.15 K)?
Answer: 18.9 ± 1.3

Question: And the activity coefficient ([2]; 358.15 K)?
Answer: 18.3 ± 1.3

Question: What about the activity coefficient ([2]; 368.15 K) of the same compound?
Answer: 17.8 ± 1.2

Question: With `CCOC(C)=O` [ethyl acetate] + CCCC[n+]1ccc(C)cc1.N#CC(=C=[N-])C#N as the compound, how does the activity coefficient ([2]; 318.15 K) read?
Answer: 1.3 ± 0.08

Question: And the activity coefficient ([2]; 328.15 K)?
Answer: 1.33 ± 0.09

Question: And the activity coefficient ([2]; 338.15 K)?
Answer: 1.36 ± 0.09

Question: What about the activity coefficient ([2]; 348.15 K) of the same compound?
Answer: 1.4 ± 0.09

Question: And the activity coefficient ([2]; 358.15 K)?
Answer: 1.42 ± 0.09

Question: What about the activity coefficient ([2]; 368.15 K) of the same compound?
Answer: 1.46 ± 0.1

Question: With `CCCC(C)=O` [pentan-2-one] + CCCC[n+]1ccc(C)cc1.N#CC(=C=[N-])C#N as the compound, how does the activity coefficient ([2]; 318.15 K) read?
Answer: 0.955 ± 0.06

Question: What about the activity coefficient ([2]; 328.15 K) of the same compound?
Answer: 0.986 ± 0.062

Question: What about the activity coefficient ([2]; 338.15 K) of the same compound?
Answer: 1.01 ± 0.06

Question: And the activity coefficient ([2]; 348.15 K)?
Answer: 1.05 ± 0.07

Question: What about the activity coefficient ([2]; 358.15 K) of the same compound?
Answer: 1.07 ± 0.07

Question: And the activity coefficient ([2]; 368.15 K)?
Answer: 1.1 ± 0.07

Question: Which activity coefficient ([2]; 318.15 K) does the source give for `CO` [methanol] + CCCC[n+]1ccc(C)cc1.N#CC(=C=[N-])C#N here?
Answer: 0.663 ± 0.045

Question: And the activity coefficient ([2]; 328.15 K)?
Answer: 0.644 ± 0.044

Question: And the activity coefficient ([2]; 338.15 K)?
Answer: 0.625 ± 0.043

Question: And the activity coefficient ([2]; 348.15 K)?
Answer: 0.612 ± 0.043

Question: And the activity coefficient ([2]; 358.15 K)?
Answer: 0.593 ± 0.042

Question: What about the activity coefficient ([2]; 368.15 K) of the same compound?
Answer: 0.58 ± 0.041
